Test results published in paper PMC3793924, “Targeting Androgen Receptor/Src Complex Impairs the Aggressive Phenotype of Human Fibrosarcoma Cells” (PLoS ONE, 2013).
Values belong to the compound of their own block, whether it stands above or below them.

What was measured:
[1] = test system: HT1080 cells; assay: Wound scratch assay in HT1080 cells; format: cell-based, human; conditions: quiescent HT1080 cells, 6 h, EGF 100 ng/ml; for Effect on EGF-induced wound closure (migration): Casodex 10 μM, S1 and Ss peptides 10 nM
[2] = test system: HCT116 cells; assay: Trans-well migration of HCT116 cells; format: cell-based, human; conditions: quiescent HCT116 cells, 6 h, EGF 100 ng/ml; for Inhibition of EGF-induced motility (Trans-well): Casodex 10 μM, S1 and Ss peptides 10 nM
[3] = test system: NIH3T3 cells; assay: BrdU incorporation in NIH3T3 fibroblasts; format: cell-based, mouse; conditions: EGF 100 ng/ml, 18 h; for Inhibition of EGF-induced BrdU incorporation: quiescent NIH3T3 fibroblasts, Casodex 10 μM, S1 and Ss peptides 1 nM
Method: NIH3T3 cells were used. In A, cells were transfected with 3416 or 3424 ARE-Luc constructs with or without hAR-expressing plasmid and then made quiescent as reported in Methods. Cells were left unstimulated or stimulated for 18 h with 10 nM R1881. Luciferase activity was assayed, normalized using beta-gal as an internal control, and expressed as fold induction. Three independent experiments were performed in triplicate. Means and SEM are shown; n represents the number of experiments. […] After in vivo labeling with BrdU (100 μM), BrdU incorporation was analyzed by IF and expressed as % of total cells. Several independent experiments were performed in duplicate and data derived from at least 700 scored cells for each coverslip. Mean and SEM are shown. n represents the number of experiments. […] Quiescent NIH3T3 fibroblasts were used. In C, cells on coverslips were left unstimulated or stimulated for 18 h with the indicated compounds. […] After in vivo pulse with BrdU (100 μM), BrdU incorporation was analyzed by IF and expressed as % of total cells. Several independent experiments were performed in duplicate and the results were derived from at least 500 scored cells for each coverslip. Mean and SEM are shown. n represents the number of experiments. […] The Western blot of MCF-7 cell lysate with the anti-tubulin or the anti-EGFR antibody is shown for comparison. In D, cells were left untreated or treated for 6 h with the indicated compounds. […] Cells were allowed to migrate in collagen pre-coated Trans-well filters. Migrated cells were stained and counted as reported in Methods. Results were derived from several independent experiments, each performed in duplicate. Data are expressed as relative increase. Mean and SEM are shown. n represents the number of experiments. […] (PPTX) Click here for additional data file.

[4] = test system: MCF-7 cells; assay: Trans-well migration of MCF-7 cells; format: cell-based, human; conditions: quiescent MCF-7 cells, 6 h, EGF 100 ng/ml; for Inhibition of EGF-induced motility (transmigration): Casodex 10 μM, S1 and Ss peptides 10 nM
[5] = biological target: T1, Src tyrosine kinase (Homo sapiens, UniProt P12931); assay: Src kinase activity in immune complexes from HT1080 cells (enolase substrate); format: cell-based; conditions: quiescent HT1080 cells, EGF 100 ng/ml 10 min; S1 and Ss peptides 1 nM; Casodex 10 μM
T1 construct: lysates were immune-precipitated with the anti-Src MAb and Src activity in immune complexes was assayed using acidified enolase; endogenous in cells; host or cells: HT1080 human fibrosarcoma cells
T1 sequence (P12931 whole entry): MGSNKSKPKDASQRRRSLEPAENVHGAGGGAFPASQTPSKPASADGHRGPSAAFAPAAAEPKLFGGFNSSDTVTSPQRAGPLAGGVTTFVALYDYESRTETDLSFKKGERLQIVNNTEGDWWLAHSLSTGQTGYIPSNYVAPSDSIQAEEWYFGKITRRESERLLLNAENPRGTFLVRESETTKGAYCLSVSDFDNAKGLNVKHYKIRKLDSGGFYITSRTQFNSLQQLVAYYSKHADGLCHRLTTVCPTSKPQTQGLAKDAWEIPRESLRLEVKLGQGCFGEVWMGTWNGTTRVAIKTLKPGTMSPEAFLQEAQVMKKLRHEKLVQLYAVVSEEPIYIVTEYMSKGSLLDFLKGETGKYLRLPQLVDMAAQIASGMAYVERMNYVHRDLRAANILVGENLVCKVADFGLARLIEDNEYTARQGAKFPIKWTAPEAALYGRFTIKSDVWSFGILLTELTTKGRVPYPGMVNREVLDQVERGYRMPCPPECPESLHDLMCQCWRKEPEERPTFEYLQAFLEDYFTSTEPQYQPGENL
Method: Quiescent HT1080 cells were used. […] Casodex (at 10 μM) was used for comparison with the S1 peptide. Upper section in A, Western blot of HT1080 cell lysates with anti-EGFR antibody. […] In B, lysates were immune-precipitated with the anti-Src MAb and Src activity in immune complexes was assayed using acidified enolase, as a substrate. In C, cells on coverslips were left untreated or treated for 18 h with the indicated compounds. After in vivo pulse with BrdU (100 μM), BrdU incorporation was analyzed by IF and expressed as % of total nuclei. Several independent experiments were performed in duplicate and the results were obtained from at least 500 scored cells for each coverslip. Mean and SEM are shown. n represents the number of experiments.
Lysates (at 2 mg/ml protein concentration) were prepared as described. […] The Src tyrosine kinase activity in immunocomplexes was assayed using enolase (Sigma) as a substrate.

[6] = test system: HT1080 cells; assay: Trans-well migration/invasiveness of HT1080 cells; format: cell-based, human; conditions: quiescent HT1080 cells, collagen-coated Trans-well, 6 h, EGF 100 ng/ml; Casodex 10 μM; S1 and Ss peptides 10 nM
[7] = test system: MCF-7 cells; assay: BrdU incorporation in MCF-7 cells; format: cell-based, human; conditions: quiescent MCF-7 cells, EGF 100 ng/ml, 18 h; for Inhibition of EGF-induced BrdU incorporation: Casodex 10 μM, S1 and Ss peptides 1nM
Method: Quiescent human prostate cancer-derived LNCaP cells were used. In A, quiescent cells on coverslips were left unstimulated or stimulated for 18 h with the indicated compounds. […] After in vivo pulse with BrdU (100 μM), BrdU incorporation was analyzed by IF and expressed as % of total cells. Several independent experiments were performed in duplicate and the results were derived from at least 600 scored cells for each coverslip. Mean and SEM are shown. n represents the number of experiments. In B, the cells were left untreated or treated for 6 h with the indicated compounds. […] Cells were allowed to migrate in collagen pre-coated Trans-well filters. Migrated cells were stained and counted as reported in Methods. Results were derived from several independent experiments, each performed in duplicate. Data are expressed as relative increase. Mean and SEM are shown. n represents the number of experiments. Quiescent human breast cancer-derived MCF-7 cells were used. In C, quiescent cells on coverslips were left un-stimulated or stimulated for 18 h with the indicated compounds. […] After in vivo pulse with BrdU (100 μM), BrdU incorporation was analyzed by IF and expressed as % of total cells. Several independent experiments were performed in duplicate and the results were derived from at least 500 scored cells for each coverslip. Mean and SEM are shown. n represents the number of experiments. In D, the cells were left untreated or treated for 6 h with the indicated compounds. […] Cells were allowed to migrate in collagen-pre-coated Trans-well filters. Migrated cells were stained and counted as reported in Methods. Results were derived from several independent experiments, each performed in duplicate. Data are expressed as relative increase. Mean and SEM are shown. n represents the number of experiments.

[8] = test system: NIH3T3 cells; assay: Trans-well migration of NIH3T3 fibroblasts; format: cell-based, mouse; conditions: 6 h, EGF 100 ng/ml; for Inhibition of EGF-induced motility (Trans-well): quiescent NIH3T3 fibroblasts, Casodex 10 µM, S1 and Ss peptides 10 nM
Method: NIH3T3 cells were used. In A, cells were transfected with 3416 or 3424 ARE-Luc constructs with or without hAR-expressing plasmid and then made quiescent as reported in Methods. Cells were left unstimulated or stimulated for 18 h with 10 nM R1881. Luciferase activity was assayed, normalized using beta-gal as an internal control, and expressed as fold induction. Three independent experiments were performed in triplicate. Means and SEM are shown; n represents the number of experiments. […] After in vivo labeling with BrdU (100 μM), BrdU incorporation was analyzed by IF and expressed as % of total cells. Several independent experiments were performed in duplicate and data derived from at least 700 scored cells for each coverslip. Mean and SEM are shown. n represents the number of experiments. […] Quiescent NIH3T3 fibroblasts were used. In C, cells on coverslips were left unstimulated or stimulated for 18 h with the indicated compounds. […] After in vivo pulse with BrdU (100 μM), BrdU incorporation was analyzed by IF and expressed as % of total cells. Several independent experiments were performed in duplicate and the results were derived from at least 500 scored cells for each coverslip. Mean and SEM are shown. n represents the number of experiments. […] The Western blot of MCF-7 cell lysate with the anti-tubulin or the anti-EGFR antibody is shown for comparison. In D, cells were left untreated or treated for 6 h with the indicated compounds. […] Cells were allowed to migrate in collagen pre-coated Trans-well filters. Migrated cells were stained and counted as reported in Methods.

Compound: CC(O)(CS(=O)(=O)c1ccc(F)cc1)C(=O)Nc1ccc(C#N)c(C(F)(F)F)c1 (centres unmarked) [Casodex]
Effect on EGF-induced wound closure (migration) [1]: Only few cells migrate | Inhibition of EGF-induced motility (Trans-well) [2]: similarly inhibit these EGF-elicited responses | Inhibition of EGF-induced BrdU incorporation [3]: significantly inhibit both the responses | Inhibition of EGF-induced motility (transmigration) [4]: inhibited to a similar extent | Inhibition of EGF-triggered Src activity stimulation [5]: This inhibition is comparable to that observed by treatment of cells with 10 μM Casodex | Inhibition of EGF-induced invasiveness (trans-migration) [6]: inhibited to a similar extent | Inhibition of EGF-induced BrdU incorporation [7]: inhibits EGF-induced BrdU incorporation | Inhibition of EGF-induced motility (Trans-well) [8]: significantly inhibit both the responses

Inhibition of EGF-triggered Src activity stimulation [5]: only slightly affects
Compound: Ac-HPKPARIPHP-NH2 [Ss peptide]
Effect on EGF-induced wound closure (migration) [1]: much weaker inhibitory effect | Inhibition of EGF-induced motility (Trans-well) [2]: does not interfere with the EGF-elicited responses | Inhibition of EGF-induced BrdU incorporation [3]: slightly modifies DNA synthesis | Inhibition of EGF-induced invasiveness (trans-migration) [6]: not by Ss peptide | Inhibition of EGF-induced BrdU incorporation [7]: only slightly affects DNA synthesis | Inhibition of EGF-induced motility (Trans-well) [8]: slightly modifies

Compound: Ac-PPPHPHARIK-NH2 [S1 peptide]
Effect on EGF-induced wound closure (migration) [1]: consistently inhibits the EGF-induced effect | Inhibition of EGF-induced motility (Trans-well) [2]: similarly inhibit these EGF-elicited responses | Inhibition of EGF-induced BrdU incorporation [3]: significantly inhibit both the responses | Inhibition of EGF-induced motility (transmigration) [4]: inhibited to a similar extent | Inhibition of EGF-triggered Src activity stimulation [5]: completely abolishes | Inhibition of EGF-induced invasiveness (trans-migration) [6]: inhibited to a similar extent | Inhibition of EGF-induced BrdU incorporation [7]: abolishes the mitogenic response elicited by EGF | Inhibition of EGF-induced motility (Trans-well) [8]: significantly inhibit both the responses

Compound: EGF: epidermal growth factor (Roche), used as stimulus at 100 ng/ml
Wound closure upon stimulation [1]: almost complete wound closure | Motility upon stimulation [2]: robustly increases | BrdU incorporation (DNA synthesis) upon stimulation with the compound alone ([3]; quiescent NIH3T3 cells, R1881 10 nM): significantly increases BrdU incorporation | Motility in transmigration assay upon stimulation [4]: significantly increases the motility | BrdU incorporation upon stimulation [7]: robustly incorporate BrdU | Motility upon stimulation ([8]; quiescent NIH3T3 cells): significantly increases
